Assay type in all cases: cell-based
One test relates to HK-2 cells. The test can be described thus: Inhibition of proliferation of HK-2 cells (normal cells; CCK8 or CTG). Conditions: Homo sapiens, maximum concentration 10 μM, 5-fold dilution. The procedure:
(1) HK-2 cells in the logarithmic growth phase were digested with 0.25% trypsin and counted. The cells were inoculated into 96-well plates at 2000 cells per well, and the 96-well plates were placed and cultured in an incubator containing 5% CO2 at 37° C. for 12 h.
(2) Six concentration gradients for the compound to be tested (with the maximum drug concentration of 10 μM and 5-fold dilution) were set. After the cells adhered to the wall, the compounds to be tested were serially diluted with DMSO, then diluted with 1640 complete medium to reach a concentration 1000 times the final concentration, and added to the corresponding wells.
(§1) (3) After the corresponding concentrations of the compounds to be tested were added, the plates were incubated in an incubator with 5% carbon dioxide at 37° C., and then the cell viability rate at each drug concentration was determined by CCK8 or CTG method. In addition, the IC50 value was calculated.

Another test has as its system HL60 cells. Briefly: Inhibition of proliferation of HL60 tumor cells (CCK8 or CTG). The conditions noted are these: Homo sapiens, HL-60. The procedure: The effect of the compound of the present disclosure on the proliferation of tumor cells was determined using the following method. The HL60 cells used in the method were purchased from Nanjing Kebai Biotechnology Co., Ltd., and the kit was the Cell Counting Kit-8/CCK-8 kit of MCE Company (article number: HY—K0301, specification: 3000T).
(1) HL60 cells in logarithmic growth phase were prepared into a cell suspension. The cell suspension was added into a 96-well plate at 5000 cells/well. The 96-well cell culture plate was placed in a CO2 incubator for 4 h of incubation of suspended cells or for 12 h of incubation of adherent cells.
(2) The compounds to be tested were diluted with IMDM complete culture medium to reach a concentration twice the testing concentration, and added to the corresponding wells.
as §1

Another test deals with A549 cells. Briefly: Inhibition of proliferation of A549 cells (CCK8 or CTG). The conditions noted are these: Homo sapiens, maximum concentration 10 μM, 5-fold dilution. The procedure: (1) A549 cells in the logarithmic growth phase were digested with 0.25% trypsin and counted. The cells were inoculated into 96-well plates at 2000 cells per well, and the 96-well plates were placed in an incubator containing 5% CO2 at 37° C. for 12 h of culture.
(2) Six concentration gradients for the compounds to be tested (with the maximum drug concentration of 10 μM and 5-fold dilution) were set. After the cells adhered to the wall, the compounds to be tested were serially diluted with DMSO, then diluted with 1640 complete medium to reach a concentration 1000 times the final concentration, and added to the corresponding wells.
as §1

SMILES strings stand for the structures. A value given as a limit tells only on which side of the number the result lay.

One may read the IC50 as the point on the concentration scale where inhibition reaches its midpoint. The low end stands for greater potency in that assay, the high end for weaker potency in that assay. As for `CC(C)NC1CCC(C(=O)Nc2sc3c(c2-c2nc4ccc(Br)cc4s2)CCNC3)CC1` (stereo not drawn) [Compound 123, N-(3-(6-bromobenzo[d]thiazol-2-yl)-4,5,6,7-tetrahydrothieno[2,3-c]pyridin-2-yl)-4-(isopropylamino) cyclohexane-1-carboxamide], half-maximal inhibition in the test with HK-2 cells (IC50) required 937 nM.

As to `CC(C)NCCCNc1sc2c(c1-c1nc3ccc(-c4ccc(N5CCNCC5)nc4)cc3s1)CCNC2` [Compound 082, N^1-isopropyl-N^3-(3-(6-(6-(piperazin-1-yl)pyridin-3-yl)benzo[d]thiazol-2-yl)-4,5,6,7-tetrahydrothieno[2,3-c]pyridin-2-yl) propane-1,3-diamine], the IC50 in the test with HK-2 cells was 4510 nM.

Take `CC(C)NCCNC(=O)Nc1sc2c(c1-c1nc3ccccc3s1)CCNC2` [Compound 077, 1-(3-(benzo[d]thiazol-2-yl)-4,5,6,7-tetrahydrothieno[2,3-c]pyridin-2-yl)-3-(2-(isopropylamino)ethyl) urea]: the IC50 is below 150 nM in the test on HL60 cells, 1260 nM with HK-2 cells and 43.4 nM with A549 cells.

As for `CC(C)NC1CC(C(=O)Nc2sc3c(c2-c2nc4ccc(C5=CCNCC5)cc4s2)CCN(C2CCCC2)C3)C1` (stereo not drawn) [Compound 054, N-(6-cyclopentyl-3-(6-(1,2,3,6-tetrahydropyridin-4-yl)benzo[d]thiazol-2-yl)-4,5,6,7-tetrahydrothieno[2,3-c]pyridin-2-yl)-3-(isopropylamino)cyclobutane-1-carboxamide], half-maximal inhibition in the test on A549 cells (IC50) was put at 21.8 nM. In other words, the double-digit nanomolar range.

In the test with HL60 cells, `CC(C)NC1CC(C(=O)Nc2sc3c(c2-c2nc4cc(C5=CCNCC5)ccc4s2)CCNC3)C1` (stereo not drawn) [Compound 022, 3-(isopropylamino)-N-(3-(5-(1,2,3,6-tetrahydropyridin-4-yl)benzo[d]thiazol-2-yl)-4,5,6,7-tetrahydrothieno [2,3-c]pyridin-2-yl) cyclobutane-1-carboxamide] returned an IC50 below 150 nM.

Regarding `CC(C)(C)NC1CC(C(=O)Nc2sc3c(c2-c2nc4ccc(C5=CCNCC5)cc4s2)CCNC3)C1` (stereo not drawn) [Compound 120, 3-(tert-butylamino)-N-(3-(6-(1,2,3,6-tetrahydropyridin-4-yl)benzo[d]thiazol-2-yl)-4,5,6,7-tetrahydrothieno [2,3-c]pyridin-2-yl) cyclobutane-1-carboxamide], the IC50 is below 150 nM in the test with HL60 cells, 760 nM with HK-2 cells and 2.77 nM in the test with A549 cells.

For the molecule `CN(C)CCNC(=O)CNc1sc2c(c1-c1nc3ccccc3s1)CCNC2` [Compound 086, 2-((3-(benzo[d]thiazol-2-yl)-4,5,6,7-tetrahydrothieno [2,3-c]pyridin-2-yl)amino)-N-(2-(dimethylamino)ethyl)acetamide], inhibition with HK-2 cells was half-maximal at 7560 nM (IC50).

Turning to `CC(C)NC1CC(C(=O)Nc2sc3c(c2-c2nc4ccc(C5=CCN(C)CC5)cc4s2)CCNC3)C1` (stereo not drawn) [Compound 017, 3-(isopropylamino)-N-(3-(6-(1-methyl-1,2,3,6-tetrahydropyridin-4-yl)benzo[d]thiazol-2-yl)-4,5,6,7-tetrahydrothieno[2,3-c]pyridin-2-yl)cyclobutane-1-carboxamide], the IC50 is below 150 nM with HL60 cells and 4.41 nM in the test on A549 cells.

With `CC(C)NC1CCC(C(=O)Nc2sc3c(c2-c2nc4ccc(C5=CCNCC5)cc4s2)CCNC3)CC1` (stereo not drawn) [Compound 124, 4-(isopropylamino)-N-(3-(6-(1,2,3,6-tetrahydropyridin-4-yl)benzo[d]thiazol-2-yl)-4,5,6,7-tetrahydrothieno [2,3-c]pyridin-2-yl) cyclohexane-1-carboxamide], the values for the IC50 with HK-2 cells and in the test on A549 cells were 3260 nM and 7.37 nM, respectively.

As for `CC(C)NC1CC(C(=O)N(C)c2sc3c(c2-c2nc4ccc(-c5ccc(N6CCNCC6)nc5)cc4s2)CCNC3)C1` (stereo not drawn) [Compound 134, 3-(isopropylamino)-N-methyl-N-(3-(6-(6-(piperazin-1-yl)pyridin-3-yl)benzo [d]thiazol-2-yl)-4,5,6,7-tetrahydrothieno[2,3-c]pyridin-2-yl)cyclobutane-1-carboxamide], the 50% inhibitory concentration (IC50) with A549 cells worked out at 0.66 nM.

As for `Cc1cn(-c2ccc3sc(-c4c(NC(=O)C5CC(NC(C)C)C5)sc5c4CCNC5)nc3c2)cn1` (stereo not drawn) [Compound 121, 3-(isopropylamino)-N-(3-(5-(4-methyl-1H-imidazol-1-yl)benzo[d]thiazol-2-yl)-4,5,6,7-tetrahydrothieno [2,3-c]pyridin-2-yl) cyclobutane-1-carboxamide], the figures for the IC50 in the test with HL60 cells and with HK-2 cells were below 150 nM and 725 nM, respectively.

As for `CC(C)NC1CCC(C(=O)Nc2sc3c(c2-c2nc4ccc(-c5ccc(N6CCNCC6)nc5)cc4s2)CCNC3)CC1` (stereo not drawn) [Compound 069, 4-(isopropylamino)-N-(3-(6-(6-(piperazin-1-yl)pyridin-3-yl)benzo[d]thiazol-2-yl)-4,5,6,7-tetrahydrothieno [2,3-c]pyridin-2-yl) cyclohexane-1-carboxamide], the IC50 with HL60 cells is below 150 nM; in the test on HK-2 cells, 2440 nM; with A549 cells, 7.8 nM.

With `CC(C)NCCC(=O)Nc1sc2c(c1-c1nc(-c3ccccc3)cs1)CCNC2` [Compound b, reference compound], the IC50 in the test with HK-2 cells was found to be 242 nM; in the test on A549 cells, 98.3 nM.

For `CC(=O)N1CCc2c(sc(NC(=O)C3CC(NC(C)C)C3)c2-c2nc3ccc(-c4ccc(N5CCNCC5)nc4)cc3s2)C1` (stereo not drawn) [Compound 122, N-(6-acetyl-3-(6-(6-(piperazin-1-yl)pyridin-3-yl)benzo[d]thiazol-2-yl)-4,5,6,7-tetrahydrothieno[2,3-c]pyridin-2-yl)-3-(isopropylamino)cyclobutane-1-carboxamide], 1040 nM corresponded to half-maximal inhibition in the test with HK-2 cells (IC50).

As for `CC(C)NC1CC(C(=O)Nc2sc3c(c2-c2nc4ccc(-c5ccc(N6CCNCC6)nc5)cc4s2)CCNC3)C1` (stereo not drawn) [Compound 009, 3-(isopropylamino)-N-(3-(6-(6-(piperazin-1-yl)pyridin-3-yl)benzo[d]thiazol-2-yl)-4,5,6,7-tetrahydrothieno [2,3-c]pyridin-2-yl) cyclobutane-1-carboxamide], the IC50 was below 150 nM with HL60 cells and 0.53 nM in the test on A549 cells.

Molecule `CN1CCN(c2sc3c(c2-c2nc4ccc(-c5ccc(N6CCNCC6)nc5)cc4s2)CCNC3)CC1` [Compound 126, 2-(2-(4-methylpiperazin-1-yl)-4,5,6,7-tetrahydrothieno [2,3-c]pyridin-3-yl)-6-(6-(piperazin-1-yl)pyridin-3-yl)benzo[d]thiazole] yielded an IC50 with HK-2 cells of 1180 nM.

Turning to `CC(C)NC1CC(C(=O)Nc2sc3c(c2-c2nc4ccccc4s2)CCNC3)C1` (stereo not drawn) [Compound 001, N-(3-(benzo[d]thiazol-2-yl)-4,5,6,7-tetrahydrothieno[2,3-c]pyridin-2-yl)-3-(isopropylamino)cyclobutane-1-carboxamide], the IC50 in the test with HK-2 cells was 759 nM; with A549 cells, 0.49 nM.

For the molecule `CC(C)NC1CCC(C(=O)Nc2sc3c(c2-c2nc4ccc(-c5ccc(N6CCNCC6)nc5)cc4s2)CCNC3)C1` (stereo not drawn) [Compound 060, 3-(isopropylamino)-N-(3-(6-(6-(piperazin-1-yl)pyridin-3-yl)benzo[d]thiazol-2-yl)-4,5,6,7-tetrahydrothieno [2,3-c]pyridin-2-yl) cyclopentane-1-carboxamide], the IC50 with HK-2 cells was found to be 1100 nM; in the test on A549 cells it was 16.8 nM.

As to `CNCCNC(=O)C(=O)Nc1sc2c(c1-c1nc3ccc(C4=CCNCC4)cc3s1)CCNC2` [Compound 125, N^1-(2-(methylamino)ethyl)-N^2-(3-(6-(1,2,3,6-tetrahydropyridin-4-yl)benzo [d]thiazol-2-yl)-4,5,6,7-tetrahydrothieno[2,3-c]pyridin-2-yl)oxalamide], the values for the IC50 with HK-2 cells and in the test with A549 cells were 11100 nM and 65.2 nM, respectively.

The molecule `COCCNC1CC(C(=O)Nc2sc3c(c2-c2nc4ccc(C5=CCNCC5)cc4s2)CCNC3)C1` (stereo not drawn) [Compound 119, 3-((2-methoxyethyl)amino)-N-(3-(6-(1,2,3,6-tetrahydropyridin-4-yl)benzo [d]thiazol-2-yl)-4,5,6,7-tetrahydrothieno[2,3-c]pyridin-2-yl)cyclobutane-1-carboxamide] gave a half-maximal inhibitory concentration (IC50) in the test on HL60 cells below 150 nM.

As for `Cc1cn(-c2ccc3nc(-c4c(NC(=O)C5CC(NC(C)C)C5)sc5c4CCNC5)sc3c2)cn1` (stereo not drawn) [Compound 014, 3-(isopropylamino)-N-(3-(6-(4-methyl-1H-imidazol-1-yl)benzo[d]thiazol-2-yl)-4,5,6,7-tetrahydrothieno[2,3-c]pyridin-2-yl)cyclobutane-1-carboxamide], the IC50 in the test with HL60 cells is below 150 nM.

The molecule `CC(=O)NC1CC(C(=O)Nc2sc3c(c2-c2nc4ccc(C5=CCN(C(C)=O)CC5)cc4s2)CCNC3)C1` (stereo not drawn) [Compound 141] displayed an IC50 in the test on HK-2 cells of 1460 nM. This counts as single-digit micromolar.
